Measured values taken from ChEMBL document CHEMBL3352804, “One-pot synthesis of polyunsaturated fatty acid amides with anti-proliferative properties” (Bioorg Med Chem Lett, 2014).

Assays:
[1] = system: A549; experiment: Growth inhibition of human A549 cells at 3 uM after 48 hrs by trypan blue dye exclusion method; assay type: functional; details: A549, 48 h, read-out: GI
[2] = system: A549; experiment: Growth inhibition of human A549 cells after 48 hrs by trypan blue dye exclusion method; assay type: functional, cell-based; details: A549, 48 h

SMILES | inhibition of growth at 3 µM [1] | IC50 [2]
CC/C=C\C/C=C\C/C=C\C/C=C\C/C=C\CCCCCC(=O)NCCO | 96.9% | 
CC/C=C\C/C=C\C/C=C\C/C=C\C/C=C\CCCCCC(=O)NC[C@@H](O)CO | 47.4% | 
CC/C=C\C/C=C\C/C=C\C/C=C\C/C=C\CCCCCC(=O)NC(CO)CO | 97.4% | 
CC/C=C\C/C=C\C/C=C\C/C=C\C/C=C\C/C=C\CCC(=O)NC[C@@H](O)CO | 48.1% | 
CC/C=C\C/C=C\C/C=C\C/C=C\C/C=C\C/C=C\CCC(=O)NC(CO)C(=O)O (stereo unspecified) | 68.7% | 
CC/C=C\C/C=C\C/C=C\C/C=C\C/C=C\CCCCCC(=O)OCC(O)CO (stereo unspecified) | 74.5% | 
CC/C=C\C/C=C\C/C=C\C/C=C\C/C=C\CCCC(=O)NC(CO)CO | 84.2% | 
CC/C=C\C/C=C\C/C=C\C/C=C\C/C=C\C/C=C\CCC(=O)NCC(O)CO (stereo unspecified) | 88.7% | 
CC/C=C\C/C=C\C/C=C\C/C=C\C/C=C\C/C=C\CCC(=O)NC[C@H](O)CO | 42.3% | 
CC/C=C\C/C=C\C/C=C\C/C=C\C/C=C\CCCCCC(=O)NCC(O)CNC(=O)CCCCC/C=C\C/C=C\C/C=C\C/C=C\C/C=C\CC | 97.7% | 
CC/C=C\C/C=C\C/C=C\C/C=C\C/C=C\CCCC(=O)NCCCNC | 67.8% | 
CC/C=C\C/C=C\C/C=C\C/C=C\C/C=C\C/C=C\CCC(=O)NCCNC(=O)CC/C=C\C/C=C\C/C=C\C/C=C\C/C=C\C/C=C\CC | 13% | 
CC/C=C\C/C=C\C/C=C\C/C=C\C/C=C\C/C=C\CCC(=O)NCC(O)CN (stereo unspecified) | 38.3% | 
CC/C=C\C/C=C\C/C=C\C/C=C\C/C=C\CCCCCC(=O)NC[C@H](O)CO | 31.6% | 
CC/C=C\C/C=C\C/C=C\C/C=C\C/C=C\C/C=C\CCC(=O)NCCO | 29.3% | 
CC/C=C\C/C=C\C/C=C\C/C=C\C/C=C\CCCC(=O)NC(C)CO (stereo unspecified) | 98.4% | 
CC/C=C\C/C=C\C/C=C\C/C=C\C/C=C\C/C=C\CCC(=O)NC(CO)CO | 77.4% | 480 nM
CC/C=C\C/C=C\C/C=C\C/C=C\C/C=C\C/C=C\CCC(=O)OCC(O)CO (stereo unspecified) | 59.1% | 1500 nM
CC/C=C\C/C=C\C/C=C\C/C=C\C/C=C\CCCC(=O)OCC(O)CO (stereo unspecified) | 51.4% | 
CC/C=C\C/C=C\C/C=C\C/C=C\C/C=C\CCCC(=O)NCCO | 70.9% | 
CC/C=C\C/C=C\C/C=C\C/C=C\C/C=C\C/C=C\CCC(=O)NCC(O)CNC(=O)CC/C=C\C/C=C\C/C=C\C/C=C\C/C=C\C/C=C\CC | 83.8% | 
CC/C=C\C/C=C\C/C=C\C/C=C\C/C=C\CCCC(=O)OCCCN(C)C | 95% | 
CC/C=C\C/C=C\C/C=C\C/C=C\C/C=C\C/C=C\CCC(=O)N[C@H](C)CO | 98.3% | 250 nM
